The structures appear in SMILES notation. Where two headings read alike, the source gives them in different places.

Nine compounds from US11866450B2, “Modulators of Cystic Fibrosis Transmembrane Conductance regulator, pharmaceutical compositions, methods of treatment, and process for making the modulators” (priority 2018, dated 2024) can be followed below.

The conditions of data set [1]: snar bond.
Data set [2] concerns the target CFTR-mediated chloride transport (Homo sapiens, UniProt P13569). It is filed as cell-based. Conditions: enteroid cells incubated with test compound 18-24 hours, acute 10 μM forskolin and 300 nM Compound III; for Max. Activity: % of chloride transport with 3 μM Compound A, 3 μM Compound II and 300 nM acute Compound III triple combination control. In outline: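 Human intestinal enteroid cells incubated with compound 18–24 h at 37° C., then membrane potential dye (FLIPR) read 15 min after chloride-free stimulation with 10 μM forskolin, 100 μM IBMX and 300 nM Compound III. AUC expressed as % of triple-combination control (3 μM Compound A, 3 μM Compound II, 300 nM Compound III).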

Chain of CFTR-mediated chloride transport (P13569 whole entry, looked up): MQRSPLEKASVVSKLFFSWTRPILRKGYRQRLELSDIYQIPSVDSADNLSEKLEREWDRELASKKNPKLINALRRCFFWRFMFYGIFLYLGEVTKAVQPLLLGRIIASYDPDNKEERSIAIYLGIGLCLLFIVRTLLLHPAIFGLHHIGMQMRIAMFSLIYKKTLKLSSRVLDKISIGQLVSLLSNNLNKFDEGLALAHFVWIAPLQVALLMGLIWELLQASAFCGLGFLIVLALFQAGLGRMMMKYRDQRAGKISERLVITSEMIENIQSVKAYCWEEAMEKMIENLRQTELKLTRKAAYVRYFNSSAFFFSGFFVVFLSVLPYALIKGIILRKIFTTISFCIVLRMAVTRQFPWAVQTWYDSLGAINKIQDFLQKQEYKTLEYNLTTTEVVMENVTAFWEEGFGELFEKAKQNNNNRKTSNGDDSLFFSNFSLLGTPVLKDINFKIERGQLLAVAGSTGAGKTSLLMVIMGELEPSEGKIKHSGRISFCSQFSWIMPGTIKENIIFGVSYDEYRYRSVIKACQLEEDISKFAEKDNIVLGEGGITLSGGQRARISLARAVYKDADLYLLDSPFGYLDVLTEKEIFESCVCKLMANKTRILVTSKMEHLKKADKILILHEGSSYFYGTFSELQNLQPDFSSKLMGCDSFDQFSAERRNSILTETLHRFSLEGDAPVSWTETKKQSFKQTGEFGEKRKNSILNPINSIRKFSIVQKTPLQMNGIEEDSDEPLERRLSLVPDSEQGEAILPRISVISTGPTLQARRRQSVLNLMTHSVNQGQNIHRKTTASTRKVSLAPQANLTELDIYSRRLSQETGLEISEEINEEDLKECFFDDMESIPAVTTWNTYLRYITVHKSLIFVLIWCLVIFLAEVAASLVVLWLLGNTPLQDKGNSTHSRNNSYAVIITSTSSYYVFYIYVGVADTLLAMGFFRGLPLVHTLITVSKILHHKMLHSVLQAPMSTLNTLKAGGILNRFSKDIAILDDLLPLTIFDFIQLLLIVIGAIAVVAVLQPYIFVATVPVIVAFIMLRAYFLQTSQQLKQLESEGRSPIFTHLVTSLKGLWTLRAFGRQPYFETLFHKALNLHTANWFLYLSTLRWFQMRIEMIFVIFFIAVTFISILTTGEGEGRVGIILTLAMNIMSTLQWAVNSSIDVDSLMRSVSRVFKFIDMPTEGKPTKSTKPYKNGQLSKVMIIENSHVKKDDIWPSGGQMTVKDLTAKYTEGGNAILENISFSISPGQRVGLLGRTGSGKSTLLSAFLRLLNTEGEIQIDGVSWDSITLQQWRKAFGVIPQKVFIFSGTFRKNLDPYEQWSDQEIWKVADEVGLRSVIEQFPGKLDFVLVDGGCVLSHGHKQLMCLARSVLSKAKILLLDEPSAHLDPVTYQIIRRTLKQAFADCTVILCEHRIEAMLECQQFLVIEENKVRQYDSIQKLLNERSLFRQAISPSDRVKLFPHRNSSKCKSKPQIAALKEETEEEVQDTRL

A word on the EC50: it is the midpoint of the concentration-response curve. Turning to `CC1(C)C[C@@H]2CCCNc3cccc(n3)S(=O)(=O)NC(=O)c3ccc(-n4ccc(OCCC5C6(CC6)C56CC6)n4)nc3N1C2` [Compound 195, (14S)-8-[3-(2-{Dispiro[2.0.2.1]heptan-7-yl}ethoxy)-1H-pyrazol-1-yl]-12,12-dimethyl-2λ^6-thia-3,9,11,18,23-pentaazatetracyclo[17.3.1.111,14.05,10]tetracosa-1(22),5,7,9,19(23),20-hexaene-2,2,4-trione], the ring closure, isolated yield in data set [1] (from CC1(C)C[C@H](CCCNc2cccc(S(=O)(=O)NC(=O)c3ccc(-n4ccc(OCCC5C6(CC6)C56CC6)n4)nc3Cl)n2)CN1, 15-membered ring, K2CO3, NMP, 55.8 mM, 150.0 °C, 22.0 h) was 68%. Further, in data set [2], the EC50 is < 1 µM and the “Max. Activity” value is listed as “+++ (+++ is >60%)”.
In data set [1] (from CC1(C)NCCC1CCNc1cccc(S(=O)(=O)NC(=O)c2ccc(-n3ccc(OCCC4(C(F)(F)F)CC4)n3)nc2Cl)n1, 14-membered ring, K2CO3/3A MS, DMSO, 25.1 mM, 180.0 °C, 18.0 h), `CC1(C)C2CCNc3cccc(n3)S(=O)(=O)NC(=O)c3ccc(-n4ccc(OCCC5(C(F)(F)F)CC5)n4)nc3N1CC2` (stereo not drawn) [Compound 236, 23,23-Dimethyl-11-(3-{2-[1-(trifluoromethyl)cyclopropyl]ethoxy}-1H-pyrazol-1-yl)-17λ^6-thia-2,8,10,16,22-pentaazatetracyclo[16.3.1.15,8.09,14]tricosa-1(22),9,11,13,18,20-hexaene-15,17,17-trione] displayed a ring closure, isolated yield of 2%. For the same compound, in data set [2], the EC50 is > 3 µM and the “Max. Activity” value is listed as “+ (+ is <30%)”.
`[2H]C([2H])(COc1ccn(-c2ccc3c(n2)N2C[C@@H](CCCNc4cccc(n4)S(=O)(=O)NC3=O)CC2(C)C)n1)C1C2(CC2)C12CC2` [Compound 252, (14S)-8-[3-(2-{dispiro[2.0.2.1]heptan-7-yl}-2,2-dideuterio-ethoxy)-1H-pyrazol-1-yl]-12,12-dimethyl-2λ^6-thia-3,9,11,18,23-pentaazatetracyclo[17.3.1.111,14.05,10]tetracosa-1(22),5,7,9,19(23),20-hexaene-2,2,4-trione]: the ring closure, isolated yield in data set [1] (from 2-chloro-6-[3-(2,2-dideuterio-2-dispiro[2.0.2.1]heptan-7-yl-ethoxy)pyrazol-1-yl]-N-[[3-[(3S)-5,5-dimethylpyrrolidin-3-yl]propylamino]-2-pyridyl]sulfonyl]pyridine-3-carboxamide (trifluoroacetate salt), 15-membered ring, K2CO3, NMP, 21.6 mM, 150.0 °C) was 85%. Moreover, in data set [2], the EC50 is < 1 µM and the “Max. Activity” value is given as “+++ (+++ is >60%)”.
`CC1(C)C[C@@H]2CCCNc3cccc(n3)S(=O)(=O)NC(=O)c3ccc(-n4ccc(OCC(O)CC5(C(F)(F)F)CC5)n4)nc3N1C2` (stereo partly drawn) [Compound 259, (14S)-8-(3-{2-hydroxy-3-[1-(trifluoromethyl)cyclopropyl]propoxy}-1H-pyrazol-1-yl)-12,12-dimethyl-2λ^6-thia-3,9,11,18,23-pentaazatetracyclo[17.3.1.111,14.05,10]tetracosa-1(22),5(10),6,8,19(23),20-hexaene-2,2,4-trione] yielded a ring closure, isolated yield in data set [1] (from CC(C)(C)OC(=O)N1C[C@@H](CCCNc2cccc(S(=O)(=O)NC(=O)c3ccc(-n4ccc(OCC(O)CC5(C(F)(F)F)CC5)n4)nc3Cl)n2)CC1(C)C, 15-membered ring, HCl/dioxane/DCM, then K2CO3/3A MS, DMSO, 28.6 mM, 155.0 °C, 2 steps) of 42%. In data set [2], the EC50 is < 1 µM and the “Max. Activity” value was “+++ (+++ is >60%)”.
In data set [1] (from [2H]C([2H])(CCOc1ccn(-c2ccc(C(=O)NS(=O)(=O)c3cccc(NCCC[C@@H]4CN(C(=O)OC(C)(C)C)C(C)(C)C4)n3)c(Cl)n2)n1)C1(C(F)(F)F)CC1, 15-membered ring, TFA/DCM, then K2CO3/3A MS, DMSO, 30.5 mM, 150.0 °C, 2 steps), `[2H]C([2H])(CCOc1ccn(-c2ccc3c(n2)N2C[C@@H](CCCNc4cccc(n4)S(=O)(=O)NC3=O)CC2(C)C)n1)C1(C(F)(F)F)CC1` [Compound 269, (14S)-12,12-Dimethyl-8-(3-{3-[1-(trifluoromethyl)cyclopropyl]-3,3-dideuterio-propoxy}-1H-pyrazol-1-yl)-2λ^6-thia-3,9,11,18,23-pentaazatetracyclo[17.3.1.111,14.05,10]tetracosa-1(22),5(10),6,8,19(23),20-hexaene-2,2,4-trione] had a ring closure, isolated yield of 24%. For the same compound, in data set [2], the EC50 is < 1 µM and the “Max. Activity” value was “+++ (+++ is >60%)”.
Take `[2H]C([2H])([2H])C1(C([2H])([2H])[2H])C[C@@H]2CCCNc3cccc(n3)S(=O)(=O)NC(=O)c3ccc(-n4ccc(OCCC5C6(CC6)C56CC6)n4)nc3N1C2` [Compound 274, (14S)-8-[3-(2-{Dispiro[2.0.2.1]heptan-7-yl}ethoxy)-1H-pyrazol-1-yl]-12,12-di(trideuterio)methyl-2λ^6-thia-3,9,11,18,23-pentaazatetracyclo[17.3.1.111,14.05,10]tetracosa-1(23),5,7,9,19,21-hexaene-2,2,4-trione]: in data set [1] (from [2H]C([2H])([2H])C1(C([2H])([2H])[2H])C[C@H](CCCNc2cccc(S(=O)(=O)NC(=O)c3ccc(-n4ccc(OCCC5C6(CC6)C56CC6)n4)nc3Cl)n2)CN1, 15-membered ring, K2CO3, NMP, 53.5 mM, 150.0 °C), the ring closure, isolated yield is 47%. In data set [2], the EC50 was < 1 µM and the “Max. Activity” value is recorded as “+++ (+++ is >60%)”.
Turning to `[2H]C([2H])(COc1ccn(-c2ccc3c(n2)N2C[C@@H](CCCNc4cccc(n4)S(=O)(=O)NC3=O)CC2(C)C)n1)C([2H])([2H])C1(C(F)(F)F)CC1` [Compound 287, (14S)-12,12-dimethyl-8-(3-{3-[1-(trifluoromethyl)cyclopropyl]-2,2,3,3-tetradeuterio-propoxy}-1H-pyrazol-1-yl)-2λ^6-thia-3,9,11,18,23-pentaazatetracyclo[17.3.1.111,14.05,10]tetracosa-1(22),5,7,9,19(23),20-hexaene-2,2,4-trione], in data set [1] (from [2H]C([2H])(COc1ccn(-c2ccc(C(=O)NS(=O)(=O)c3cccc(NCCC[C@@H]4CNC(C)(C)C4)n3)c(Cl)n2)n1)C([2H])([2H])C1(C(F)(F)F)CC1, 15-membered ring, K2CO3, NMP, 20.8 mM, 155.0 °C, 18.0 h), the ring closure, isolated yield stood at 73%. For the same compound, in data set [2], the EC50 was < 1 µM and the “Max. Activity” value is “++ (++ is 30-60%)”.
On to `[2H]C([2H])([2H])C1(C([2H])([2H])[2H])C[C@@H]2CCCNc3cccc(n3)S(=O)(=O)NC(=O)c3ccc(-n4ccc(OCCCC5(C(F)(F)F)CC5)n4)nc3N1C2` [Compound 292, (14S)-12,12-di(trideuterio)methyl-8-(3-{3-[1-(trifluoromethyl)cyclopropyl]propoxy}-1H-pyrazol-1-yl)-2λ^6-thia-3,9,11,18,23-pentaazatetracyclo[17.3.1.111,14.05,10]tetracosa-1(22),5,7,9,19(23),20-hexaene-2,2,4-trione], for which the ring closure, isolated yield in data set [1] (from [2H]C([2H])([2H])C1(C([2H])([2H])[2H])C[C@H](CCCNc2cccc(S(=O)(=O)NC(=O)c3ccc(-n4ccc(OCCCC5(C(F)(F)F)CC5)n4)nc3Cl)n2)CN1, 15-membered ring, K2CO3, NMP, 41.5 mM, 135.0 °C, 22.0 h) turned out to be 27%. For the same compound, in data set [2], the EC50 is < 1 µM and the “Max. Activity” value was “+++ (+++ is >60%)”.
Turning to `CC1(C)C[C@@H]2CCCNc3cccc(n3)S(=O)(=O)NC(=O)c3ccc(-n4ccc(OCCC(O)C5(C(F)(F)F)CC5)n4)nc3N1C2` (stereo partly drawn) [Compound 295, (14S)-8-(3-{3-hydroxy-3-[1-(trifluoromethyl)cyclopropyl]propoxy}-1H-pyrazol-1-yl)-12,12-dimethyl-2λ^6-thia-3,9,11,18,23-pentaazatetracyclo[17.3.1.111,14.05,10]tetracosa-1(22),5,7,9,19(23),20-hexaene-2,2,4-trione], the ring closure, isolated yield in data set [1] (from CC(C)(C)OC(=O)N1C[C@@H](CCCNc2cccc(S(=O)(=O)NC(=O)c3ccc(-n4ccc(OCCC(O[Si](C)(C)C(C)(C)C)C5(C(F)(F)F)CC5)n4)nc3Cl)n2)CC1(C)C, 15-membered ring, K2CO3/CsF/3A MS, DMSO, 41.7 mM, 150.0 °C, 2 steps) was 46%. Further, in data set [2], the EC50 is < 1 µM and the “Max. Activity” value was “++ (++ is 30-60%)”.
